Experimental data: US10800816B2 (Baxalta GmbH, priority 2012, dated 2020)
Where a SMILES comes first, the peptide text is derived from it. [ ]: non-standard residue; d: D form. The star is where a group is joined. Succinimide(1-Et,3-yl) = CCN1C(=O)CC(*)C1=O; Tle = CC(C)(C)[C@H](N)C(=O)O; Hexanoyl = CCCCCC(=O)*; Aib = CC(C)(N)C(=O)O; Acm = CC(=O)NC*

Legend:
[1] = FIGURE 78AA
Excerpt: Table printed on a drawing sheet, FIGURE 78AA
First reader's note: Continued from the previous sheet: the first body row (73.35) belongs to a compound listed there; cells with several numbers hold the single replicate values behind the mean.

[2] = test system: TFPI; experiment: Progress Curves of Inhibition of FXa | % Inhibit (2.5μM)
Procedure: Head of the field: Progress Curves of Inhibition of FXa | % Inhibit (2.5μM)

[3] = test system: FVIII-inhibited whole blood; experiment: Rotation thromboelastography (ROTEM) in whole blood; set-up: species or system human; conditions: for EC50: FVIII-inhibited, read-out: EC50, global hemostatic parameters; for coagulation parameters: Hem A / FVIII-inhibited human whole blood
Procedure: Continuous visco-elastic assessment of human whole blood clot formation and firmness was performed by rotation thromboelastography with whole blood preparations in the presence or absence of peptides. […] Test samples were prepared by dissolving quantities of peptides in either DMSO or HEPES buffered saline (with or without 0.1% Tween 80).
Recordings were made using a ROTEM thromboelastography coagulation analyzer (Pentapharm, Munich, Germany) at 37° C. Briefly, blood is added into a disposable cuvette in a heated cuvette holder. A disposable pin (sensor) is fixed on the tip of a rotating axis. The axis is guided by a high precision ball bearing system and rotates back and forth. The axis is connected with a spring for the measurement of elasticity. The exact position of the axis is detected by the reflection of light on a small mirror on the axis. The loss of elasticity when the sample clots leads to a change in the rotation of the axis. The data obtained are computer analyzed and visualized in a thromboelastogram. […] An elasticity of approximately zero is observed before clot formation begins. Mirror image traces above and below the zero line indicate the effect of clot formation on the rotation of the axis.
The analytical set-up was as follows: to 20 μL of test sample or control, 300 μL of pre-warmed (37° C.) CTI treated citrated whole blood was added, followed by 20 μL of a 1:15 dilution of TF PRP reagent containing recombinant human tissue factor (rTF, 3 pM) (TS40, Thrombinoscope BV, Maastricht, The Netherlands). Coagulation was initiated by the addition of 20 μ200 mM CaCl2 (star-TEM®, Pentapharm, Munich, Germany) and recordings were allowed to proceed for at least 120 min. The final concentration of rTF in the assay was 11 or 44 fM.
The thromboelastographic parameters of clotting time (CT), clot formation time (CFT) and maximum clot firmness (MCF) were recorded in accordance with the manufacturer's instructions. CT is defined as the time from the start of measurement to the start of clot formation. CFT is defined as the time from the start of clot formation until an amplitude of 20 mm is reached. MCF is the maximum difference in amplitude between the two traces during the assay. The first derivative of the data of the thromboelastogram are plotted to obtain a graph of velocity (mm/s) against time (s). From this graph, the maximum velocity (maxV) is determined. The time at which the maximum velocity is obtained (maxV-t) is also determined.
This example describes a method for assessing clot formation in whole blood using rotation thromboelastography (ROTEM). The assay was performed as described in Example 8. The analytical set-up was as follows: 300 μL of pre-warmed (37° C.) CTI treated citrated whole blood was added to a peptide sample (10, 100, 1000 nM final assay concentration) or a control, followed by addition of a 1:15 dilution of TF PRP reagent containing recombinant human tissue factor (rTF, 3 pM) (TS40, Thrombinoscope BV, Maastricht, The Netherlands). In certain experiments, exogenous full length TFPI (flTFPI) at final concentrations of 2 or 10 nM was added to simulate flTFPI plasma levels of up to 50-fold over normal. Coagulation was initiated by the addition of 20 μL 200 mM CaCl2 (star-TEM®, Pentapharm, Munich, Germany) and recordings were allowed to proceed for at least 120 min. The final concentration of rTF in the assay was 44 fM. The thromboelastographic parameters of clotting time (CT), clot formation time (CFT) and maximum clot firmness (MCF) were recorded in accordance with the manufacturer's instructions. CT is defined as the time from the start of measurement to the start of clot formation. CFT is defined as the time from the start of clot formation until an amplitude of 20 mm is reached. MCF is the maximum difference in amplitude between the two traces during the assay.

[4] = FIGURE 78J
Excerpt: Table printed on a drawing sheet, FIGURE 78J
First reader's note: Part of a table series (FIGS. 78A-78AA); single-measurement columns hold several replicate values per cell, joined by blanks, next to the mean column (the first INHIBITION [%] column holds the mean).

[5] = FIGURE 78K
Excerpt: Table printed on a drawing sheet, FIGURE 78K

[6] = FIGURE 78Z
[7] = test system: TFPI; experiment: IC50 ELISA | Mean IC50 [nM]
Excerpt: Table printed on a drawing sheet, FIGURE 78Z
Head of the field: IC50 ELISA | Mean IC50 [nM]
First copying reader's note: Continued table: the first body row (45.67) belongs to a compound on the preceding sheet, the last row probably continues on the next sheet, and cells with several values list single replicates.

Q: With “(Hex-FQSKp-Cys(Acm)-VH-Tle-DaYFERL-Aib-AKLC-NH2)- Mal-mPEG23 [JBT00002544]” as the compound, how does the “24 h Human Plasma Stability | Mean Remaining [%]” value [1] read?
A: 54.00%

Q: And the “24 h Mouse Plasma Stability | Mean Remaining [%]” value [1]?
A: 46.20%

Q: With “Ac-KKQLHVSKRSKEMALARLYYKTKK-NH2 (SEQ ID NO: 2306) [JBT0235]” as the compound, how does the “Progress Curves of Inhibition of FXa | % Inhibit ([…])” value [2] read?
A: 0%

Q: For `CSCC[C@@H]1NC(=O)[C@H](C)NC(=O)[C@@H](NC(=O)[C@H](Cc2c[nH]cn2)NC(=O)[C@H](Cc2c[nH]c3ccccc23)NC(=O)[C@H](CCCCN)NC(=O)[C@H](Cc2ccc(O)cc2)NC(=O)[C@H](Cc2ccc(O)cc2)NC(=O)[C@H](CO)NC(C)=O)CSSC[C@@H](C(=O)N[C@H](C(=O)N[C@@H](Cc2c[nH]c3ccccc23)C(=O)N[C@H](C(=O)N[C@@H](CCCCN)C(=O)N[C@@H](Cc2ccccc2)C(N)=O)C(C)C)C(C)C)NC(=O)[C@H]([C@@H](C)O)NC(=O)[C@H](CCSC)NC(=O)[C@H]([C@@H](C)O)NC(=O)CNC(=O)[C@H](CCCCN)NC(=O)[C@H](CCSC)NC(=O)[C@H](CC(=O)O)NC(=O)[C@H](CCCNC(=N)N)NC1=O` [JBT1837], which EC50 [3] is on record?
A: 4 nM

Q: And the coagulation parameters [3]?
A: corrected blood coagulation parameters in FVIII-inhibited blood

Q: What does the source list for `CCCCCC(=O)N[C@@H](Cc1ccccc1)C(=O)N[C@@H](CCC(N)=O)C(=O)N[C@@H](CO)C(=O)N[C@@H](CCCCN)C(=O)N1CCC[C@@H]1C(=O)N[C@@H](CO)C(=O)N[C@H](C(=O)N[C@@H](Cc1c[nH]cn1)C(=O)N[C@H](C(=O)N[C@@H](CC(=O)O)C(=O)N[C@H](C)C(=O)N[C@@H](Cc1ccc(O)cc1)C(=O)N[C@@H](Cc1ccccc1)C(=O)N[C@@H](CCC(=O)O)C(=O)N[C@@H](CCCNC(=N)N)C(=O)N[C@@H](CC(C)C)C(=O)NC(C)(C)C(=O)N[C@@H](C)C(=O)N[C@@H](CCCCN)C(=O)N[C@@H](CC(C)C)C(N)=O)C(C)(C)C)C(C)C` [JBT00002548, Hex-FQSKpSVH-Tle-DaYFERL-Aib-AKL-NH2]?
A: 24 h Human Plasma Stability | Mean Remaining [%] [1]: 98.85%; 24 h Mouse Plasma Stability | Mean Remaining [%] [1]: 50.25%

Q: With `CCCCCC(=O)N[C@@H](Cc1ccccc1)C(=O)N[C@@H](CCC(N)=O)C(=O)N[C@@H](CO)C(=O)N[C@@H](CCCCN)C(=O)N1CCC[C@@H]1C(=O)N[C@@H](CSCNC(C)=O)C(=O)N[C@H](C(=O)N[C@@H](Cc1c[nH]cn1)C(=O)N[C@H](C(=O)N[C@@H](CC(=O)O)C(=O)N[C@H](C)C(=O)N[C@@H](Cc1ccc(O)cc1)C(=O)N[C@@H](Cc1ccccc1)C(=O)N[C@@H](CCC(=O)O)C(=O)N[C@@H](CCCNC(=N)N)C(=O)N[C@@H](CC(C)C)C(=O)NC(C)(C)C(=O)N[C@@H](C)C(=O)N[C@@H](CCCCN)C(=O)N[C@@H](CC(C)C)C(N)=O)C(C)(C)C)C(C)C` [JBT2528, Hex-FQSKp-C(Acm)-VH-Tle-DaYFERL-Aib-AKL-NH2] (Hexanoyl-FQSK[dP]C(Acm)VH[Tle]D[dA]YFERL[Aib]AKL-NH2) as the compound, how does the EC50 [3] read?
A: 11 nM

Q: Which “24 h Human Plasma Stability | Mean Remaining [%]” value [4] does the source give for “Ac-FQSKpNVHVDGYFERL-Aib-AKLC(ME-120MA)-NH2 [JBT00002326]” here?
A: 58.70%

Q: What about the “24 h Mouse Plasma Stability | Mean Remaining [%]” value [4] of the same compound?
A: 57.20%

Q: For “Ac-KKYASFPLAVQLHVSKRSKEMAKK-NH2 [JBT0233]”, which “Progress Curves of Inhibition of FXa | % Inhibit ([…])” value [2] is on record?
A: 6%

Q: Which coagulation parameters [3] does the source give for `CCN1C(=O)CC(SC[C@H](NC(=O)[C@H](CC(C)C)NC(=O)[C@H](CCCCN)NC(=O)[C@H](C)NC(=O)C(C)(C)NC(=O)[C@H](CC(C)C)NC(=O)[C@H](CCCNC(=N)N)NC(=O)[C@H](CCC(=O)O)NC(=O)[C@H](Cc2ccccc2)NC(=O)[C@H](Cc2ccc(O)cc2)NC(=O)CNC(=O)[C@H](CC(=O)O)NC(=O)[C@@H](NC(=O)[C@H](Cc2c[nH]cn2)NC(=O)[C@@H](NC(=O)[C@H](CC(N)=O)NC(=O)[C@H]2CCCN2C(=O)[C@H](CCCCN)NC(=O)[C@H](CO)NC(=O)[C@H](CCC(N)=O)NC(=O)[C@H](Cc2ccccc2)NC(C)=O)C(C)C)C(C)C)C(N)=O)C1=O` (some centres unmarked) [JBT2317] here?
A: restored coagulation parameters in Hem A blood

Q: And the “24 h Human Plasma Stability | Mean Remaining [%]” value [4]?
A: 23.77%

Q: And the “24 h Mouse Plasma Stability | Mean Remaining [%]” value [4]?
A: 15.95%

Q: Which “Progress Curves of Inhibition of FXa | % Inhibit ([…])” value [2] does the source give for “Ac-KKLHVSKRSKEMALARLYYKTSKK-NH2 (SEQ ID NO: 2307) [JBT0236]” here?
A: 0%

Q: What does the source list for “Ac-FQSKpNVHVDGYFERL-Aib-AKLC(ME-200MA0B)-NH2 [JBT00002327]”?
A: 24 h Human Plasma Stability | Mean Remaining [%] [5]: 76.50%; 24 h Mouse Plasma Stability | Mean Remaining [%] [5]: 65.50%

Q: With “Ac-KKHVSKRSKEMALARLYYKTSKK-NH2 (SEQ ID NO: 2302) [JBT0231]” as the compound, how does the “Progress Curves of Inhibition of FXa | % Inhibit ([…])” value [2] read?
A: 0%

Q: With `CCCCCC(=O)N[C@@H](Cc1ccccc1)C(=O)N[C@@H](CCC(N)=O)C(=O)N[C@@H](CO)C(=O)N[C@@H](CCCCN)C(=O)N1CCC[C@@H]1C(=O)N[C@@H](CSCNC(C)=O)C(=O)N[C@H](C(=O)N[C@@H](Cc1c[nH]cn1)C(=O)N[C@H](C(=O)N[C@@H](CC(=O)O)C(=O)N[C@H](C)C(=O)N[C@@H](Cc1ccc(O)cc1)C(=O)N[C@@H](Cc1ccccc1)C(=O)N[C@@H](CCC(=O)O)C(=O)N[C@@H](CCCNC(=N)N)C(=O)N[C@@H](CC(C)C)C(=O)NC(C)(C)C(=O)N[C@@H](C)C(=O)N[C@@H](CCCCN)C(=O)N[C@@H](CC(C)C)C(=O)N[C@@H](CSC1CC(=O)N(CC)C1=O)C(N)=O)C(C)(C)C)C(C)C` (some centres unmarked) [JBT00002537, Hex-FQSKp-Cys(Acm)-VH-Tle-DaYFERL-Aib-AKLC(NEM)- NH2] (Hexanoyl-FQSK[dP]C(Acm)VH[Tle]D[dA]YFERL[Aib]AKLC(Succinimide(1-Et,3-yl))-NH2) as the compound, how does the “24 h Human Plasma Stability | Mean Remaining [%]” value [6] read?
A: 106.65%

Q: And the IC50 [7]?
A: 7.13 nM

Q: For “Ac-FQSKpNVHVDGYFERL-Aib-AKLC(ME-300MA)-NH2 [JBT00002328]”, which “24 h Human Plasma Stability | Mean Remaining [%]” value [5] is on record?
A: 68.40%

Q: And the “24 h Mouse Plasma Stability | Mean Remaining [%]” value [5]?
A: 51.00%

Q: For “Ac-FQSKpNVHVDGYFERL-Aib-AKLC(ME-50MA)-NH2 [JBT00002325]”, which “24 h Human Plasma Stability | Mean Remaining [%]” value [4] is on record?
A: 67.60%

Q: And the “24 h Mouse Plasma Stability | Mean Remaining [%]” value [4]?
A: 44.70%

Q: With `CCCCCC(=O)N[C@@H](Cc1ccccc1)C(=O)N[C@@H](CCC(N)=O)C(=O)N[C@@H](CO)C(=O)N[C@@H](CCCCN)C(=O)N1CCC[C@@H]1C(=O)N[C@@H](CO)C(=O)N[C@H](C(=O)N[C@@H](Cc1c[nH]cn1)C(=O)N[C@H](C(=O)N[C@@H](CC(=O)O)C(=O)N[C@H](C)C(=O)N[C@@H](Cc1ccc(O)cc1)C(=O)N[C@@H](Cc1ccccc1)C(=O)N[C@@H](CCC(=O)O)C(=O)N[C@@H](CCCNC(=N)N)C(=O)N[C@@H](CC(C)C)C(=O)NC(C)(C)C(=O)N[C@@H](C)C(=O)N[C@@H](CCCCN)C(=O)N[C@@H](CC(C)C)C(=O)N[C@@H](CSC1CC(=O)N(CC)C1=O)C(N)=O)C(C)(C)C)C(C)C` (some centres unmarked) [JBT00002546, Hex-FQSKpSVH-Tle-DaYFERL-Aib-AKLC(NEM)-NH2] (Hexanoyl-FQSK[dP]SVH[Tle]D[dA]YFERL[Aib]AKLC(Succinimide(1-Et,3-yl))-NH2) as the compound, how does the “24 h Human Plasma Stability | Mean Remaining [%]” value [1] read?
A: 87.66%

Q: And the “24 h Mouse Plasma Stability | Mean Remaining [%]” value [1]?
A: 72.98%
